Measurements from patent publication US20240426847A1, “COMPOSITIONS AND METHODS FOR THE DETERMINATION OF SODIUM CONCENTRATION” (The University of Chicago, priority 2023, published 2024).

Legend:
PIKfyve = target: T1, PIKfyve (Mus musculus, UniProt Q9Z1T6); assay: Pharmacological inhibition of macrophages, lysosomal Na^+ measured with RatiNa; assay type: cell-based, murine; conditions: RAW 264.7 macrophages, 100 nM apilimod 1 h; native lysosomes ~48 mM
T1 construct: endogenous in cells; host or cells: RAW 264.7 macrophages
Method: 1 μM RatiNa in prewarmed Opti-MEM was added to RAW macrophage and incubated for 2 h for maximum RatiNa uptake. Cells were then washed 3 times with PBS and incubated in prewarmed complete DMEM medium for 30 min to allow lysosome targeting of RatiNa. RatiNa in cell was then imaged in confocal microscope or widefield microscope.
RAW macrophage was treated with 100 nM apilimod for 1 h to inhibit PIKfyve. RatiNa treatment was done as stated previously with 100 nM apilimod in all medium. Cell was then imaged in confocal microscope.

[1] = ssDNA-CG Na^+ sensitivity by fluorescence; assay type: physicochemical; conditions: 1 mM and 150 mM NaCl, 100 nM ssDNA-CG, pH 7.4 potassium phosphate buffer
Method: FIGS. 12A-12B illustrate the validation of CG-DNA conjugate efficiency and Na^+ sensitivity. […] Molar ratio of DNA to CG is confirmed to be ˜ 1:1 confirming the coupling efficiency. […] 1 mM and 150 mM NaCl was added to 100 nM of ssDNA-CG in pH 7.4 potassium phosphate buffer. Fluorescence maximum at 545 increases more than 5-fold.
100 nM of RatiNa was aliquoted in UB buffer (10 mM HEPES, MES and potassium acetate, 140 mM NaCl/KCl). pH adjusted by HCl or KOH) Fluorescent emission spectra was taken by Fluoromax (Horiba) with the following collection parameters: For CG, dex=522 nm, range from 530 nm to 600 nm. For ATTO647N, dex=645 nm, range from 660 nm to 700 nm.

T1 sequence (Q9Z1T6 whole entry): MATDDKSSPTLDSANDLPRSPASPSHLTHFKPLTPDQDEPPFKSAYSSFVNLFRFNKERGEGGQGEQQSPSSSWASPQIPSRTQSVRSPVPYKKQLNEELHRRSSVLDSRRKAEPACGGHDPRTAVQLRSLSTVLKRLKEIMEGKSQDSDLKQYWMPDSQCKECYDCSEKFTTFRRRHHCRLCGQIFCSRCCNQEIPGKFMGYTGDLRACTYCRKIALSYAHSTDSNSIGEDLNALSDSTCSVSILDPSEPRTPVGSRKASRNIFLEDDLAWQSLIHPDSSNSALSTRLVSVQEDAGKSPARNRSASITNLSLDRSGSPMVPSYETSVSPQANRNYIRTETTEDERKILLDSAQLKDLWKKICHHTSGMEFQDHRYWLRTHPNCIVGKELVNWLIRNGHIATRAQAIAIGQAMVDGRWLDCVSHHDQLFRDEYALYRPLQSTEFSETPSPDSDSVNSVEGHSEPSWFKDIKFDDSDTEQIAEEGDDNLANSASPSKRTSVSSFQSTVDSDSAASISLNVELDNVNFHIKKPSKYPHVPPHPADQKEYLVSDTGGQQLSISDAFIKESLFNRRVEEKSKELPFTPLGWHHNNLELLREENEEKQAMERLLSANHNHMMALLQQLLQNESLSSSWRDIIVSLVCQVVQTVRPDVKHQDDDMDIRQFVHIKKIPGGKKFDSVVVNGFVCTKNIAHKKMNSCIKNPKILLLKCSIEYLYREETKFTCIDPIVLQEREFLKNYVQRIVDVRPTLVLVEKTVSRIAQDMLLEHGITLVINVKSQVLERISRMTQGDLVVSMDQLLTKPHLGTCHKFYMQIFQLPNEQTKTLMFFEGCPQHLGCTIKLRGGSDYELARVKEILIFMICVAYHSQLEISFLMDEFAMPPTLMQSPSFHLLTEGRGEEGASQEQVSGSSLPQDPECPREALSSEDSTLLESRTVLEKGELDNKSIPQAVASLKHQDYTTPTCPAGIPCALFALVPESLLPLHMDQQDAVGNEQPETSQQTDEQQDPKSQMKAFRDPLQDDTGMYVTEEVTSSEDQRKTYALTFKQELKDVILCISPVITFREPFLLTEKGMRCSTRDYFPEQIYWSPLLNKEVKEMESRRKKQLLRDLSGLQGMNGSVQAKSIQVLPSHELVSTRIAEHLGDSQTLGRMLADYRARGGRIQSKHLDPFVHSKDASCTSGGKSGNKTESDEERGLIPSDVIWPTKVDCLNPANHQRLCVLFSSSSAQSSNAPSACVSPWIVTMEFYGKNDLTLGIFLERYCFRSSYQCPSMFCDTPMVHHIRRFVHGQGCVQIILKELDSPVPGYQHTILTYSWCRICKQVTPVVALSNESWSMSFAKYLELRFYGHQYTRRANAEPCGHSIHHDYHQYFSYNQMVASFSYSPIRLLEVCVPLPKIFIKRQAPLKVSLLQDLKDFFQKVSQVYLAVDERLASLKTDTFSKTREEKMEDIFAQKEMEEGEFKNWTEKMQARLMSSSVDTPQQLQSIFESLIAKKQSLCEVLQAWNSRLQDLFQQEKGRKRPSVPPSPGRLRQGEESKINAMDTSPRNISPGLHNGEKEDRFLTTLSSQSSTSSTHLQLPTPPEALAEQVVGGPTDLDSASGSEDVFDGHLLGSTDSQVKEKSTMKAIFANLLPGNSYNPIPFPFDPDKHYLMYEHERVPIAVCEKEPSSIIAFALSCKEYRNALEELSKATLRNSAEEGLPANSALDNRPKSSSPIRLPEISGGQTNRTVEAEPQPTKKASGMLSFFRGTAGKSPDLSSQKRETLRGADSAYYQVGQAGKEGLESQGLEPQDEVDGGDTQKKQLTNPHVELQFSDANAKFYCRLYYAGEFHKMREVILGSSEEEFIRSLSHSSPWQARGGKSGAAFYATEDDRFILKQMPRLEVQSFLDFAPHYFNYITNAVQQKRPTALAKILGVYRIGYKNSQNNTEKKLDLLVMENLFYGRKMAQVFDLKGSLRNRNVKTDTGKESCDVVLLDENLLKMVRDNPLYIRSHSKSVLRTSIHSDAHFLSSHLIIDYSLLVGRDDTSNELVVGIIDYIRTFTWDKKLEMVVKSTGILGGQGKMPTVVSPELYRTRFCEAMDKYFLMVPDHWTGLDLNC

Row | lysosomal Na^+ upon PIKfyve inhibition (PIKfyve) [mM] | Compound | increase of fluorescence maximum at 545 [1]
1 | ~70 | Cc1cccc(/C=N/Nc2cc(N3CCOCC3)nc(OCCc3ccccn3)n2)c1 [apilimod] | –
2 | – | ssDNA-CG: 25mer ssDNA conjugated to CG dye by CuAAC coupling (CGATCAACACTGCATATATATACGACC; CG dye conjugated by CuAAC, chemistry not fully specified) | more than 5 fold
